pIC50, pKi: −log10 of the molar value.
What was measured:
[1] = target: T1, 5-hydroxytryptamine receptor 2C (Homo sapiens, UniProt P28335); assay: DRUGMATRIX: Serotonin (5-Hydroxytryptamine) 5-HT2C radioligand binding (ligand: [3H] Mesulergine); type: cell membranes, CHO-K1, Membrane; conditions: cho-k1; Not Active = under 50% inhibition at 10 µM
T1 sequence (P28335 whole entry): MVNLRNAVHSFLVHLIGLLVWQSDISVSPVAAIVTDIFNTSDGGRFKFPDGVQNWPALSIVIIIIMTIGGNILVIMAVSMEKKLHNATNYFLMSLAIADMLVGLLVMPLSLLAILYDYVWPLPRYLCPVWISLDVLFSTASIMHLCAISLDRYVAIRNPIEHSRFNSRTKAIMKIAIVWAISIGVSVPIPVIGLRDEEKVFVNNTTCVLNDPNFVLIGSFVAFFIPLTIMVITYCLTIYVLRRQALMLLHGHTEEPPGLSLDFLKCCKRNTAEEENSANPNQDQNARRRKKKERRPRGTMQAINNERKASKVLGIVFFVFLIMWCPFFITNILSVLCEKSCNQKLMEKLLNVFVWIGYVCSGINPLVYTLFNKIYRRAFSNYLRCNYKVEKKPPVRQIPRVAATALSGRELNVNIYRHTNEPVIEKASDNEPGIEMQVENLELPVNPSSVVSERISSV

[2] = DRUGMATRIX: Sigma2 radioligand binding (ligand: [3H] Ifenprodil); type: cell membranes, Rattus norvegicus, Wistar, Brain, Membrane; conditions: Not Active = under 50% inhibition at 10 µM
[3] = target: T2, C-C chemokine receptor type 4 (Homo sapiens, UniProt P51679); type: cell membranes, Chem-1, Membrane; conditions: chem-1; note: in other assays of this panel Not Active means under 50% inhibition at 10 µM
T2 sequence (P51679 whole entry): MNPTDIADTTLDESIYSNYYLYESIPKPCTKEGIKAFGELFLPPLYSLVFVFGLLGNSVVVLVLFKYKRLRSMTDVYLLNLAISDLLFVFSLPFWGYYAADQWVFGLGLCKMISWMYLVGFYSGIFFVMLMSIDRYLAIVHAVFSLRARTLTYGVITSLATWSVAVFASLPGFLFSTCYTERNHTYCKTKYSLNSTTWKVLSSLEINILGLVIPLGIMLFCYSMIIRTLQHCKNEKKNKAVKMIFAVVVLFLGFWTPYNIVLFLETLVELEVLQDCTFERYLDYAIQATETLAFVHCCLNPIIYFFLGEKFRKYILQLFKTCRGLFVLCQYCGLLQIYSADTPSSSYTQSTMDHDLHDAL

[4] = DRUGMATRIX: Imidazoline I2, Central radioligand binding (ligand: [3H] Idazoxan); type: cell membranes, Rattus norvegicus, Wistar, Cerebral cortex, Membrane; conditions: Not Active = under 50% inhibition at 10 µM
Melanocortin receptor 3 = Melanocortin receptor 3 (Homo sapiens, UniProt P41968); type: cell membranes, HEK293, Membrane; conditions: hek293; note: in other assays of this panel Not Active means under 50% inhibition at 10 µM
Glucocorticoid receptor = target: T3, Glucocorticoid receptor (Homo sapiens, UniProt P04150); conditions: hela s3; note: in other assays of this panel Not Active means under 50% inhibition at 10 µM
T3 sequence (P04150 whole entry): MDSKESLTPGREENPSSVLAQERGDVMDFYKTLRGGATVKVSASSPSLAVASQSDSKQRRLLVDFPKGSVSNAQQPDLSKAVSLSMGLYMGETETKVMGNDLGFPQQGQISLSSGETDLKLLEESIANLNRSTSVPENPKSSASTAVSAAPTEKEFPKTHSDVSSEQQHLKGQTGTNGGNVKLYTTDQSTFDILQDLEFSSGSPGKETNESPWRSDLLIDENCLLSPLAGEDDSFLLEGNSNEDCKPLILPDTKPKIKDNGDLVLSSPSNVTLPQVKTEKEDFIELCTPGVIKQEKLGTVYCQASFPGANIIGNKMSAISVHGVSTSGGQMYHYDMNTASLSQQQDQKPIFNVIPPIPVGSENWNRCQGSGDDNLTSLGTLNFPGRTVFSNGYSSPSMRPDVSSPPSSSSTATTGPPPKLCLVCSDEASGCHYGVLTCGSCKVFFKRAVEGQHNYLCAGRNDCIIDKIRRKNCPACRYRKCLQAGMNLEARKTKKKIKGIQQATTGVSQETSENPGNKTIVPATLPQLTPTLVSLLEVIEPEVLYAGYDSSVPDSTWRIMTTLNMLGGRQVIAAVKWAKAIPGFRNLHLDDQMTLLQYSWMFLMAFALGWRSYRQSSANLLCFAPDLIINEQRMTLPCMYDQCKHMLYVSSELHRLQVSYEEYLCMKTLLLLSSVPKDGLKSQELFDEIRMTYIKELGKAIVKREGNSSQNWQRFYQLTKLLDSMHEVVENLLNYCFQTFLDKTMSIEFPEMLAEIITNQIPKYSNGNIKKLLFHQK

Melanocortin receptor 3, sequence (P41968 whole entry): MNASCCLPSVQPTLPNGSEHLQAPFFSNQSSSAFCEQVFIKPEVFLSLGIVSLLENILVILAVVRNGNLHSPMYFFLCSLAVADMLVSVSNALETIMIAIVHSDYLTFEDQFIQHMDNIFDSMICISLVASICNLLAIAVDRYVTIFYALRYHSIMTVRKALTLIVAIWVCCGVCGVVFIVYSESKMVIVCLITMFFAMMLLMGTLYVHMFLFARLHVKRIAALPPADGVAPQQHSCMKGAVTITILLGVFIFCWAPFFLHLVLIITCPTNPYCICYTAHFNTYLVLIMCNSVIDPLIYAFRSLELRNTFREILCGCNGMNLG

## CC(C)CN(C[C@@H](O)[C@H](Cc1ccccc1)NC(=O)O[C@H]1CCOC1)S(=O)(=O)c1ccc(N)cc1
[1]
  IC50: Not Active
[2]
  IC50: Not Active
  Ki: Not Active
[3]
  IC50: Not Active
[4]
  IC50: Not Active
  Ki: Not Active
Melanocortin receptor 3
  IC50: Not Active
Glucocorticoid receptor
  IC50: Not Active

## COc1cc2c3cc1Oc1cc(ccc1O)C[C@@H]1c4c(cc(OC)c(O)c4Oc4ccc(cc4)C[C@@H]3N(C)CC2)CC[N+]1(C)C.[Cl-]
[1]
  IC50: Not Active
[2]
  IC50: Not Active
  Ki: Not Active
[3]
  IC50: Not Active
[4]
  IC50: Not Active
  Ki: Not Active
Melanocortin receptor 3
  IC50: Not Active

## NC(=O)N1c2ccccc2CCc2ccccc21
[1]
  IC50: Not Active
[2]
  IC50: Not Active
  Ki: Not Active
[3]
  IC50: Not Active
[4]
  IC50: Not Active
  Ki: Not Active
Melanocortin receptor 3
  IC50: Not Active
Glucocorticoid receptor
  IC50: Not Active

## CC(C)C(Br)C(=O)NC(N)=O (stereo unspecified) [BROMISOVALUM]
[1]
  IC50: Not Active
[2]
  IC50: Not Active
  Ki: Not Active
[3]
  IC50: Not Active
[4]
  IC50: Not Active
  Ki: Not Active
Melanocortin receptor 3
  IC50: Not Active

## CCCC1O[C@@H]2C[C@H]3[C@@H]4CCC5=CC(=O)C=C[C@]5(C)[C@H]4[C@@H](O)C[C@]3(C)[C@]2(C(=O)CO)O1 (stereo partly specified) [BUDESONIDE]
[1]
  IC50: Not Active
[2]
  IC50: Not Active
  Ki: Not Active
[3]
  IC50: Not Active
[4]
  IC50: Not Active
  Ki: Not Active
Melanocortin receptor 3
  IC50: Not Active

## O=C(O)CCCc1ccc(N(CCCl)CCCl)cc1 [CHLORAMBUCIL]
[1]
  IC50: Not Active
[2]
  IC50: Not Active
  Ki: Not Active
[3]
  IC50: Not Active
[4]
  IC50: Not Active
  Ki: Not Active
Melanocortin receptor 3
  IC50: Not Active

## CN(C)CCCN1c2ccccc2Sc2ccc(Cl)cc21 [CHLORPROMAZINE]
[2]; read-out: IC50
  pIC50: 5.57
[2]; read-out: Ki
  pKi: 5.78
[3]
  IC50: Not Active
[4]; read-out: IC50
  pIC50: 5.57
[4]; read-out: Ki
  pKi: 5.75
Glucocorticoid receptor
  IC50: Not Active

## CC(C)(C)NCC(O)c1cc(Cl)c(N)c(Cl)c1 (stereo unspecified) [CLENBUTEROL]
[1]
  IC50: Not Active
[2]
  IC50: Not Active
  Ki: Not Active
[3]
  IC50: Not Active
[4]
  IC50: Not Active
  Ki: Not Active
Melanocortin receptor 3
  IC50: Not Active

## CC1CC(OC(=O)C(O)c2ccccc2)CC(C)(C)C1 (stereo unspecified) [CYCLANDELATE]
[1]
  IC50: Not Active
[2]
  IC50: Not Active
  Ki: Not Active
[3]
  IC50: Not Active
[4]
  IC50: Not Active
  Ki: Not Active
Melanocortin receptor 3
  IC50: Not Active

## CNCCCN1c2ccccc2CCc2ccccc21 [DESIPRAMINE]
[1]
  IC50: Not Active
[2]
  IC50: Not Active
  Ki: Not Active
[3]
  IC50: Not Active
[4]
  IC50: Not Active
  Ki: Not Active
Melanocortin receptor 3
  IC50: Not Active

## O=c1oc2ccccc2c(O)c1Cc1c(O)c2ccccc2oc1=O [DICUMAROL]
[1]
  IC50: Not Active
[2]
  IC50: Not Active
  Ki: Not Active
[3]
  IC50: Not Active
[4]
  IC50: Not Active
  Ki: Not Active
Melanocortin receptor 3
  IC50: Not Active

## CC(=O)O[C@@]12CO[C@@H]1C[C@H](O)[C@@]1(C)C(=O)[C@H](O)C3=C(C)[C@@H](OC(=O)[C@H](O)[C@@H](NC(=O)OC(C)(C)C)c4ccccc4)C[C@@](O)([C@@H](OC(=O)c4ccccc4)[C@H]21)C3(C)C.O.O.O [DOCETAXEL]
[1]
  IC50: Not Active
[2]
  IC50: Not Active
  Ki: Not Active
[3]
  IC50: Not Active
[4]
  IC50: Not Active
  Ki: Not Active
Melanocortin receptor 3
  IC50: Not Active

## COc1cc2nc(N3CCN(C(=O)C4COc5ccccc5O4)CC3)nc(N)c2cc1OC (stereo unspecified) [DOXAZOSIN]
[2]
  IC50: Not Active
  Ki: Not Active
[3]
  IC50: Not Active
[4]
  IC50: Not Active
  Ki: Not Active
Melanocortin receptor 3
  IC50: Not Active
